{"source": "paper PMC7269146", "about": "“Jingzhaotoxin-X, a gating modifier of Kv4.2 and Kv4.3 potassium channels purified from the venom of the Chinese tarantula Chilobrachys jingzhao” (The Journal of Venomous Animals and Toxins Including …, 2020)", "key": {"Kv1.1": {"tested_on": "Kv1.1", "test": "microelectrode voltage-clamp, Xenopus laevis oocytes, Kv1.1", "assay_type": "cell-based", "conditions": "10 μM, 300-ms depolarization to +20 mV from -90 mV, pH 7.5, 19-23°C, n = 3", "description": "Briefly, plasmids were linearized, and transcription was carried out according to the standardized protocol. Afterwards, the capped cRNAs that encoded the related ion channels were prepared. To conduct transcription in vitro, firstly, NotL was utilized to linearize plasmids pCI that contained both Kv1.1 (Accession: NM_010595.3) and Kv2.1 (Accession: AF026005.1), whereas SphI was adopted to linearize plasmid PcDNA3 containing Kv1.2 (Accession: NM_012970.3) gene. […] Thereafter, the linearized plasmids were used as the templates to synthesize cRNAs in vitro using the large-scale T7 mMESSAGE mMACHINE transcription kit (Ambion, USA).\nA mature female X. laevis was placed on the ice for anesthesia, and then the Xenopus laevis oocytes at stage IV-VI were extracted. Subsequently, those extracted oocytes were treated by collagenase (1 mg/mL) contained within the calcium-depleted ND96 solution (containing 96 mM NaCl, 10 mM HEPES, 1 mM MgCl2, and 2 mM KCl) for defolliculation. […]\nFirstly, the effects of JZTX-X on the isoforms of potassium channels (including Kv1.1-1.3, Kv2.1, as well as Kv4.2-4.3) contained within the X. laevis oocytes were investigated through the microelectrode voltage-clamp approach. […] We also determined the effects of JZTX-X on Ito potassium channels in rat DRG neurons; those current amplitudes were inhibited by 54.4±6.8% when 500 nM JZTX-X was applied (Fig. 3K, n = 5)."}, "Nav1.7": {"tested_on": "Nav1.7", "test": "voltage-clamp, Nav1.7 currents", "assay_type": "cell-based, human", "conditions": "1 μM; n = 3", "source_text": "Rat cDNA genes encoding Kv4.2 (Accession: NM_031730.2) and Kv4.3 (Accession: AB003587.1) were subcloned to vector pcDNA3.1. In addition, human cDNA genes encoding Nav1.7 (Accession: DQ857292.1) and Nav1.5 (Accession: AB158469.2) were subcloned to vectors pcDNA3.1-mod and pcDNA3.1, separately. Then, Kv4.2, Kv4.3, Nav1.5 and Nav1.7 constructs were transiently transfected into the human embryonic kidney 293t (HEK293t) cells using lipofectamine 2000 (Invitrogen, USA) in accordance with manufacturer protocols. Thereafter, HEK293 cells were inoculated within Dulbecco’s modified Eagle’s medium (DMEM) containing 10% fetal bovine serum (FBS) at 5% CO2 and 37°C. The Kv4.3 channel and the Kv4.2 counterpart were then transfected in the absence of β subunit. Subsequently, cells were incubated with a DNA-lipofectamine mixture (one reporter plasmid for green fluorescence protein and channel constructs) for 4-6 h, and were washed with the fresh medium.\nAn EPC-10 patch-clamp amplifier (HEKA, Germany) was employed to record the potassium currents at the configuration of whole-cell patch-clamp under an ambient temperature of 22-25°C. The resistance was 2.0-3.0 MΩ when the recording pipette contained a full volume of internal solution (supplemented with 140 mM KCl, 10 mM HEPES, 2.5 mM MgCl2, 5 mM ATP and 11 mM EGTA). […]"}}, "note": "“Also recorded” adds a separate entry of the source. Where a SMILES comes first, the peptide text is derived from it. Bridges are numbered along the chain shown (N, C = ends)."}
{"smiles": "CC(C)C[C@@H]1NC(=O)[C@H](CCCCN)NC(=O)[C@H](Cc2ccc(O)cc2)NC(=O)[C@@H]2CSSC[C@@H]3NC(=O)[C@H](Cc4ccc(O)cc4)NC(=O)[C@H](Cc4ccccc4)NC(=O)CNC(=O)[C@H](C)NC(=O)[C@H](CSSC[C@H](NC(=O)[C@@H](N)CC(C)C)C(=O)N[C@@H](CO)C(=O)N[C@@H](CCCNC(=N)N)C(=O)N[C@@H](CCC(=O)O)C(=O)NCC(=O)N[C@@H](CCC(=O)O)C(=O)N[C@@H](Cc4ccccc4)C(=O)N2)NC(=O)[C@H](CSSC[C@@H](C(=O)N[C@@H](Cc2ccc(O)cc2)C(=O)N[C@@H](CCCNC(=N)N)C(=O)N[C@@H](CC(N)=O)C(=O)O)NC(=O)[C@H](Cc2c[nH]cn2)NC(=O)[C@H](CC(C)C)NC(=O)[C@H](C(C)C)NC(=O)[C@H](Cc2ccccc2)NC(=O)[C@H](C)NC(=O)[C@H](CCCCN)NC3=O)NC(=O)[C@H](CCCCN)NC(=O)[C@H](CCCNC(=N)N)NC1=O", "note": "[JZTX-X, Jingzhaotoxin-X] (H-LCSREGEFCYKLRKCCAGFYCKAFVLHCYRN-OH; disulfide 2-16, 9-21, 15-28; N-terminus assumed)", "values": [{"measurement": "inhibition of Kv1.1 current", "setting": "Kv1.1", "result": "less than 5%"}, {"measurement": "effect on Nav1.7 channel", "setting": "Nav1.7", "result": "negligible effect; also recorded: did not affect the currents"}]}
